≈ marks a conversion by molar mass, not a printed value. Entries after “also recorded” stand apart in the source; their conditions may differ. Read-outs that look alike come from different tables or passages of the source. Each block holds one molecule with its values, some of them ahead of it.
Experiments:
[1] = Tissue accumulation at the site of infection (plasma, skin, skin abscess); conditions: for AUC(0-inf) / AUC(0-t) / Cmax / Kp / Tmax / half-life: mouse, po, 50 mg/kg
H influenzae 49247 = test: MIC, H influenzae 49247; assay type: cell-based, Haemophilus influenzae; conditions: Haemophilus influenzae, 49247; Table 5
Description: (§1) Susceptibility tests can be used to quantitatively measure the in vitro activity of an antimicrobial agent against a given bacterial isolate. Compounds are tested for in vitro antibacterial activity by a micro-dilution method. Minimal Inhibitory Concentration (MIC) is determined in 96 well microtiter plates utilizing the appropriate broth medium for the observed bacterial isolates. Antimicrobial agents are serially diluted (2-fold) in DMSO to produce a concentration range from about 64 μg/ml to about 0.03 μg/ml. The diluted compounds (2 μl/well) are then transferred into sterile, uninoculated medium (0.2 mL) by use of a 96 fixed tip-pipetting station. The inoculum for each bacterial strain is standardized to approximately 5×10^5 CFU/mL by optical comparison to a 0.5 McFarland turbidity standard. The plates are inoculated with 10 μl/well of adjusted bacterial inoculum. The 96 well plates are covered and incubated at 35±2° C. for 24 hours in ambient air environment. Following incubation, plate wells are visually examined by Optical Density measurement for the presence of growth (turbidity). The lowest concentration of an antimicrobial agent at which no visible growth occurs is defined as the MIC.
(§2) All in vitro testing follows the guidelines described in the Approved Standards M7-A7 protocol, published by the Clinical Laboratory Standards Institute (CLSI).

S. aureus Smith [2] = test: MIC, S. aureus Smith; assay type: cell-based, Staphylococcus aureus
Description: as §1, §2

S. aureus 7662 = test: Systemic mouse protection model, S. aureus 7662; assay type: in vivo; conditions: Staphylococcus aureus, S. aureus 7662, iv
H influenzae 33929 = test: MIC, H influenzae 33929; assay type: cell-based, Haemophilus influenzae; conditions: Haemophilus influenzae, 33929; Table 5
Description: as §1, §2

MRSA 7662 [3] = test: MIC, MRSA 7662; assay type: cell-based; conditions: Staphylococcus aureus
Description: as §1, §2

MRSA 33591 = test: MIC, MRSA 33591; assay type: cell-based, Staphylococcus aureus; conditions: Staphylococcus aureus, MRSA; Table 5
Description: as §1, §2

S. aureus Smith [4] = test: Systemic mouse protection model (MPT), S. aureus Smith; assay type: in vivo; conditions: Staphylococcus aureus
MRSA 7662 [5] = test: Mouse skin and soft tissue infection, MRSA 7662; assay type: in vivo; conditions: Staphylococcus aureus
[6] = Oral pharmacokinetics in dog; assay type: in vivo; conditions: for Cmax / Tmax / half-life / AUC(0-t): in vivo; for Cmax / Tmax / half-life / AUC(0-t) / CLF / F / Vd: oral, Dog; for AUC(0-t): read-out: AUC0-24
H. influenzae 1435 [7] = test: MIC, H. influenzae 1435; assay type: cell-based, Haemophilus influenzae; parameters: unit not given beside the values
Description: as §1, §2

H. influenzae S1280 [8] = test: MIC, H. influenzae S1280; assay type: cell-based, Haemophilus influenzae; parameters: unit not given beside the values
Description: as §1, §2

[9] = Oral pharmacokinetics in rat plasma and lung tissue; assay type: in vivo; conditions: 10 mg/kg PO; for AUC(0-t): read-out: AUC0-24; for Kp: lung/plasma, po, 10 mg/kg
H. influenzae S1280 [10] = test: Rat lung infection model (RLI), H. influenzae S1280; assay type: in vivo; conditions: Haemophilus influenzae, read-out: ED50 (2Log Red for RLI)
[11] = Oral pharmacokinetics in rat; assay type: in vivo; conditions: 10 mg/kg
[12] = Oral pharmacokinetics in mice; assay type: in vivo; conditions: 15 mg/kg
S. pneumoniae 7701 [13] = test: MIC, S. pneumoniae 7701; assay type: cell-based
Description: as §1, §2

H. influenzae 3643 [14] = test: Rat lung infection model (RLI), H. influenzae 3643; assay type: in vivo; conditions: Haemophilus influenzae, read-out: ED50 (2Log Red for RLI)
H. influenzae 3643 [15] = test: MIC, H. influenzae 3643; assay type: cell-based, Haemophilus influenzae; parameters: unit not given beside the values
Description: as §1, §2

H. influenzae 1435 [16] = test: Rat lung infection model (RLI), H. influenzae 1435; assay type: in vivo; conditions: Haemophilus influenzae, read-out: ED50 (2Log Red for RLI)
S. pneumoniae 7701 [17] = test: Mouse protection test model (MPT), S. pneumoniae 7701; assay type: in vivo; conditions: Streptococcus pneumoniae
[18] = In vitro blood incubation of amino acid prodrugs, rat blood; assay type: in vitro ADME; conditions: 2 μM prodrug
Description: (§3) Compounds 5, 6, 7 and 8 (2 μM) were incubated with fresh human blood (conducted in duplicate), rat and mouse blood. Reaction was started by the addition of compound 5, and was stopped at predefined time points (0, 5, 10, 15, 30, 45 and 60 minutes) by removing one aliquot from the incubation mixture (0.1 mL per aliquot) and adding it to 3-fold volume of stop reagent (ice-cold acetonitrile, 0.3 mL). Precipitated protein was removed by centrifugation. Prodrug compound 5-8 and parent compound 1 or 3 concentrations in the supernatant were analyzed by LC/MS/MS.

[19] = In vitro blood incubation of amino acid prodrugs, mouse blood; assay type: in vitro ADME, Mice; conditions: 2 μM prodrug
Description: as §3

[20] = In vitro blood incubation of amino acid prodrugs, fresh human blood; assay type: in vitro ADME; conditions: 2 μM prodrug
Description: as §3

[21] = Rat PK of amino acid prodrug after IV/PO administration; assay type: in vivo
[22] = plasma, 10 mg/kg IV, prodrug itself measured

SMILES: CCC(=O)/N=C1\[C@H](C)C[C@@]2(C)OC/C(=N/OCc3ccc(-c4nc(N)cs4)cn3)CO[C@H]([C@H]1C)[C@](C)(O)[C@@H](CC)OC(=O)[C@@](C)(F)C(=O)[C@H](C)[C@H]2O[C@@H]1O[C@H](C)C[C@H](N(C)C)[C@H]1O [Compound 1]
Accumulation at the site of infection ([1]; infected skin tissue of mice): highly accumulated at the site of infections in infected skin tissue of mice
AUC(0-inf) ([1]; infected skin abscess): 617000 ng·h/mL
AUC(0-t) ([1]; infected skin abscess): 257000 ng·h/mL
Cmax ([1]; infected skin abscess): 9030 ng/mL
Kp ([1]; infected skin abscess): 25.2
Tmax ([1]; infected skin abscess): 3 h
half-life ([1]; infected skin abscess): 52.4 h
AUC(0-inf) ([1]; plasma): 24500 ng·h/mL
AUC(0-t) ([1]; plasma): 24400 ng·h/mL
Cmax ([1]; plasma): 5120 ng/mL
Tmax ([1]; plasma): 0.5 h
half-life ([1]; plasma): 5.2 h
AUC(0-inf) ([1]; uninfected skin): 66600 ng·h/mL
AUC(0-t) ([1]; uninfected skin): 54600 ng·h/mL
Cmax ([1]; uninfected skin): 3800 ng/mL
Kp ([1]; uninfected skin): 2.72
Tmax ([1]; uninfected skin): 3 h
half-life ([1]; uninfected skin): 17.9 h
MIC (H influenzae 49247): 4 µg/mL (≈ 4.42 µM)
MIC (S. aureus Smith [2]; Staphylococcus aureus, table of systemic mouse protection model, read-out: MIC): 130 µg/mL (≈ 144 µM)
ED50 (S. aureus 7662): 3.6 mg/kg
MIC (H influenzae 33929): 4 µg/mL (≈ 4.42 µM)
MIC (MRSA 7662 [3]; S. aureus 7662, table of systemic mouse protection model, read-out: MIC): 1000 µg/mL (≈ 1100 µM)
MIC (MRSA 7662 [3]; Table 5, read-out: MIC MRSA 7662): 1 µg/mL (≈ 1.1 µM)
MIC (MRSA 33591): 2 µg/mL (≈ 2.21 µM)
ED50 (S. aureus Smith [4]; systemic mouse protection model, iv): 4.8 mg/kg
ED50 (S. aureus Smith [4]; systemic mouse protection model, po): 13.3 mg/kg
ED50 (MRSA 7662 [5]; MRSA 7662, iv): 12 mg/kg
ED50 (MRSA 7662 [5]; MRSA 7662, po): 29 mg/kg

Cmax ([6]; 5 mg/kg): 2470 ng/mL
Tmax ([6]; 5 mg/kg): 1.3 h
half-life ([6]; 5 mg/kg): 7.3 h
AUC(0-t) ([6]; 5 mg/kg): 32600 ng·h/mL
Cmax ([6]; 10 mg/kg): 5040 ng/mL
Tmax ([6]; 10 mg/kg): 6 h
half-life ([6]; 10 mg/kg): 15.8 h
AUC(0-t) ([6]; 10 mg/kg): 84400 ng·h/mL
CLF ([6]; 5 mg/kg): 1.67 mL/min/kg
F ([6]; 5 mg/kg): 71%
Vd ([6]; 5 mg/kg): 1.0 L/kg
CLF ([6]; 10 mg/kg): 1.67 mL/min/kg
F ([6]; 10 mg/kg): 100%
Vd ([6]; 10 mg/kg): 1.54 L/kg
MIC (H influenzae 49247): 4 µg/mL (≈ 4.75 µM)
MIC (H. influenzae 1435 [7]): 4
MIC (S. aureus Smith [2]; table of animal models of infection): 0.25
MIC (H influenzae 33929): 4 µg/mL (≈ 4.75 µM)
MIC (H. influenzae S1280 [8]): 8
Cmax ([9]; Lung): 19000 ± 80 ng/mL
Tmax ([9]; Lung): 2.33 ± 1.15 h
half-life ([9]; Lung): 2.51 ± 0.1 h
AUC(0-t) ([9]; Lung): 110000 ± 12900 ng·h/mL
Cmax ([9]; Plasma): 2540 ± 80 ng/mL
Tmax ([9]; Plasma): 1.67 ± 1.15 h
half-life ([9]; Plasma): 2.06 ± 0.45 h
AUC(0-t) ([9]; Plasma): 13900 ± 2810 ng·h/mL
Kp ([9]; read-out: AUC Lung/Plasma): 8 ± 0.9
Kp ([9]; read-out: Cmax Lung/plasma): 7.5 ± 1
CLF [11]: 10.7 mL/min/kg
F [11]: 87%
Vd [11]: 1.97 L/kg
Cmax ([11]; plasma): 2540 ng/mL
Tmax ([11]; plasma): 1.7 h
half-life ([11]; plasma): 2.1 h
AUC(0-t) ([11]; plasma, read-out: AUC0-24): 13900 ng·h/mL
CLF [12]: 26.7 mL/min/kg
F [12]: 100%
Vd [12]: 6.8 L/kg
Cmax ([12]; mouse, in vivo): 2430 ng/mL
Tmax ([12]; mouse, in vivo): 0.5 h
half-life ([12]; mouse, in vivo): 2.4 h
AUC(0-t) ([12]; mouse, in vivo, read-out: AUC0-24): 9800 ng·h/mL
MIC (S. pneumoniae 7701 [13]): <=0.06
MIC (H. influenzae 3643 [15]): 16
SMILES: CC[C@H]1OC(=O)[C@H](C)C(=O)[C@H](C)[C@@H](O[C@@H]2O[C@H](C)C[C@H](N(C)C)[C@H]2O)[C@@]2(C)C[C@@H](C)/C(=N\C(C)=O)[C@H](C)[C@@H](OC/C(=N\OCc3ccc(-c4ccno4)nc3)CO2)[C@]1(C)O [Compound 4]
Animal pharmacokinetics properties in dogs ([6]; dogs): low clearance, excellent oral absorption (bioavailability) and AUC
ED50 (H. influenzae S1280 [10]): 46 mg/kg
ED50 (S. aureus Smith [4]; MPT): 9 mg/kg
ED50 (H. influenzae 3643 [14]): 64 mg/kg
ED50 (H. influenzae 1435 [16]): 33 mg/kg
ED50 (S. pneumoniae 7701 [17]): 9 mg/kg

% remaining after 60 min, Rat [18]: 9.3%
% remaining after 60 min, Mice [19]: 5.6%
% remaining after 60 min, Human [20]: 8.3%
ClF ([21]; 10 mg/kg IV, prodrug itself measured): 788 mL/min/kg
AUC(0-inf) [21, 22]: 210 ng·h/mL
Cmax [21, 22]: 310 ng/mL
Tmax [21, 22]: 4.8 min
Vd [21, 22]: 13.3 L/kg
half-life [21, 22]: 0.2 h
SMILES: CCC(=O)/N=C1\[C@H](C)C[C@@]2(C)OC/C(=N/OCc3ccc(-c4nc(NC(=O)[C@@H](N)CC(C)C)cs4)cn3)CO[C@H]([C@H]1C)[C@](C)(O)[C@@H](CC)OC(=O)[C@@](C)(F)C(=O)[C@H](C)[C@H]2O[C@@H]1O[C@H](C)C[C@H](N(C)C)[C@H]1O [Compound 6]
Prodrug in plasma after oral administration ([21]; 10 mg/kg PO, prodrug itself, 10 mg/kg): No prodrug was detected in the plasma; also recorded: None detected in plasma via oral route-
Conversion to the parent amino derivative (Compound 1) ([21]; after oral (po) and IV administration): rapidly converted to the parent amino derivative
